The values that follow are results of earlier work, collected in US20230233634A1, “PROCYANIDINS FOR THE TREATMENT OF ENDOTHELIAL DYSFUNCTION TRIGGERED BY COVID-19” (priority 2020, published 2023).

In the data set the test system is iNOS (inducible nitric oxide synthase). Conditions: direct anti-inflammatory activity.

On to `O=C1CCC(Cc2ccc(O)c(O)c2)O1` (stereo not shown) [M1, δ-(3,4-dihydroxy-phenyl)-γ-valerolactone], for which the “iNOS expression and nitrite production” value is “reducing iNOS (inducible nitric oxide synthase) expression and excessive nitrite production”.
